From ChEMBL document CHEMBL3352315, “Biotransformation of huperzine A by a fungal endophyte of Huperzia serrata furnished sesquiterpenoid-alkaloid hybrids” (J Nat Prod, 2014) come the findings set out here.

Chain of Acetylcholinesterase (P22303 whole entry): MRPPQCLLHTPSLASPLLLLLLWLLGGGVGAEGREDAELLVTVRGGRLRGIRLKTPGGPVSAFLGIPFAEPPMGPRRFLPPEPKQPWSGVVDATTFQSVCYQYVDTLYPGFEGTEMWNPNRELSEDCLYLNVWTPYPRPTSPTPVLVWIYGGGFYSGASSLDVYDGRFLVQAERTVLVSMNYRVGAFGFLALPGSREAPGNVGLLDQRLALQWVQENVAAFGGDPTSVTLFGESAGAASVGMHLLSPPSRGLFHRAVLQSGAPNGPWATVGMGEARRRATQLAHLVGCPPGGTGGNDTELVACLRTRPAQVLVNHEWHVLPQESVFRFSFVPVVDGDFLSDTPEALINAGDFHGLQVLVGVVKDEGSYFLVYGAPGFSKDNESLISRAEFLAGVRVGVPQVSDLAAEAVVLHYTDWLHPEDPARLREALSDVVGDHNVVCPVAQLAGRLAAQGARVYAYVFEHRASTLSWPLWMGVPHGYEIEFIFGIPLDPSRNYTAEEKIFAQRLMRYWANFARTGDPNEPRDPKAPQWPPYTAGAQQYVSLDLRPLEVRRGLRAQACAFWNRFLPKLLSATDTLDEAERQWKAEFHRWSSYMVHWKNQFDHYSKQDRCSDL

The assay has as its target Acetylcholinesterase (Homo sapiens, UniProt P22303). As to the kind of experiment: Inhibition of acetylcholinesterase (unknown origin) assessed as inhibition of acetylcholine hydrolysis after 30 mins by Ellmann's method.
By IC50 is commonly meant the midpoint of a concentration-inhibition curve. `C/C=C1\[C@H]2C=C(C)C[C@]1(NC1OCC3=C4CC(C)(C)[C@H](O)[C@H]4[C@@H](C)CCC31O)c1ccc(=O)[nH]c1C2` (stereo not given in full): the IC50 was determined as 0.06 µM.
Consider `C/C=C1\[C@H]2C=C(C)C[C@]1(N[C@H]1OC(=O)C3=C4CC(C)(C)C[C@H]4[C@@H](C)[C@@H](O)C[C@]31OC)c1ccc(=O)[nH]c1C2`, for which the IC50 stood at 0.99 µM.
In the case of `C/C=C1\[C@H]2C=C(C)C[C@]1(NC1OCC3=C4CC(C)(C)C[C@H]4[C@@H](C)[C@H](O)CC31O)c1ccc(=O)[nH]c1C2` (stereo not given in full), the IC50 is 0.11 µM.
The value for `C/C=C1/[C@@H]2Cc3[nH]c(=O)ccc3[C@@]1(N)C[C@]1(C)O[C@H]21` was 12.1 µM.
The value for `C/C=C1\[C@H]2C=C(C)C[C@]1(N[C@H]1OC(=O)C3=C4CC(C)(C)C[C@H]4[C@@H](C)[C@@H](O)C[C@]31O)c1ccc(=O)[nH]c1C2` was 2.17 µM.
